Test results published in publication PMC6119630 (Bioorganic & medicinal chemistry letters, 2018).
One block for each molecule: values may come before it.

Experiments:
[1] = biological target: T1, hPPARα (Homo sapiens, UniProt Q07869); experiment: cell-based
T1 sequence (Q07869 1-468): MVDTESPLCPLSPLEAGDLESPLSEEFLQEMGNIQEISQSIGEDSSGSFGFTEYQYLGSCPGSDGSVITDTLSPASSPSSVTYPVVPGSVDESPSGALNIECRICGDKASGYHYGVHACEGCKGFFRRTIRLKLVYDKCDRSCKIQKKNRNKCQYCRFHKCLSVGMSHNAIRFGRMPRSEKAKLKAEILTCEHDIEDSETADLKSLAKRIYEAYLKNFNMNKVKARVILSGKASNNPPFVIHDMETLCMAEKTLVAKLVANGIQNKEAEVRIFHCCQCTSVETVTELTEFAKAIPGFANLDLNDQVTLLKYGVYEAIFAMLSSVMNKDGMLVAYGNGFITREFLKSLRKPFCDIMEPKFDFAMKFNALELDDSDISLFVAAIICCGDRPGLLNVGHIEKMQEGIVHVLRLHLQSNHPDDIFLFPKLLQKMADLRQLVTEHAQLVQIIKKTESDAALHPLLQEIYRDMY

[2] = system: human retinal capillary endothelial cells (HRCEC); experiment: in vitro wound healing assay; format: cell-based; details: 10 h and 24 h incubation
[3] = system: PPARα target genes (Acadm, Cpt1a, Fabp3, Slc25a20); experiment: RT-PCR of PPARα target genes in 661W cells; format: cell-based, mouse; details: 24 h treatment, n=6
[4] = system: PPARα; experiment: Western blot analysis of PPARα expression in 661W cells; format: cell-based, mouse; details: 24 h treatment
[5] = biological target: T1, hPPARα; experiment: PPARα luciferase cell reporter assay; details: for PPAR isoform selectivity profile: hPPARδ, hPPARγ luciferase cell-lines
[6] = system: PPARα; details: read-out: EC50 in biochemical PPARα assays; cited from earlier work
[7] = system: retinas of mice and diabetic rats; details: cited from earlier work
[8] = system: type 2 diabetic patients; details: FIELD and ACCORD; cited from earlier work

- EC50 [1]: ~6 µM
Compound: COc1ccc(COc2ccc(CNc3cccc(C(=O)O)c3)cc2)cc1 [Compound 10]
- wound closure (cell migration) [2]: inhibits wound closure in a dose-dependent fashion
- expression of PPARα target genes (RT-PCR) [3]: induces the expression of various PPARα target genes
- PPARα expression (Western blot) [4]: induced the expression of PPARα in a dose-dependent manner

- PPAR isoform selectivity profile ([5]; hPPARα): maintains the selectivity
Compound: COc1ccc(COc2ccc(CNc3cccc(C(=O)O)c3)c(OCc3ccc(OC)cc3)c2)cc1 [Compound 26]

- PPAR isoform selectivity profile ([5]; hPPARα): pan-agonist profile was maintained
- improvement in potency versus 22 ([5]; hPPARα, compare 22 and 28): 10 fold
Compound: COc1ccc(COc2ccc(CNc3cccc(OC(C)(C)C(=O)O)c3)c(OCc3ccc(OC)cc3)c2)cc1 [Compound 28]

Compound: Cc1c(Cl)ccc2c(C(=O)O)cc(-c3ccccc3)nc12 [Compound Y-0452, 7-chloro-8-methyl-2-phenylquinoline-4-carboxylic acid]
- EC50 [6]: 25 to 50 µM
- toxicity in the retinas ([7]; mice and diabetic rats): without signs of toxicity
- effects in vivo against DR ([7]; retinas of mice and diabetic rats): protective effects in vivo against DR

Compound: Cc1nc(-c2ccc(C(F)(F)F)cc2)sc1C(=O)NCc1ccc(OC(C)(C)C(=O)O)cc1 [GW590735, reference compound]
- cytotoxicity in reporter assay ([5]; concentrations higher than 10 μM): observed cytotoxicity at higher concentrations

Compound: CC(C)OC(=O)C(C)(C)Oc1ccc(C(=O)c2ccc(Cl)cc2)cc1 [fenofibrate]
- effects against diabetic macular edema (DME) and retinal NV [8]: robust protective effects
